# Measurements: patent US20220281794A1, “METHOD OF THE ISOLATING CHLOROSESAMONE OR CHLOROSESAMONE-CONTAINING FRACTION FROM ROOTS OF GENUS SESAMUM, AND APPLICATION OF THE FRACTION THEREOF” (BRILLIANT BIOMEDICAL CORP., priority 2019, published 2022)
# Tests used:
# Format in all cases: cell-based
# [1] = test system: 4T1 mouse breast cancer cell and HepG2 human liver cancer cell; assay: cell viability assay, summary over 4T1 and HepG2; settings: range over 4T1 and HepG2 cells
# Experimental: (§1) In the first embodiment, MDA-MB-231, a human breast cancer cell and 4T1, a mouse breast cancer cell, Huh-7 and HepG2, a human liver cancer cell and BNL-1-MEA, a mouse liver cancer cell, HL60, a human blood cancer cell and WEHI-3, a mouse blood cancer cell , and
# (§2) A549, a human lung cancer cell and LLC1, a mouse lung cancer cell are used for the experiments. A 96-well plate is used for cell culture. In the test, cells are treated with 0, 25, 50, 100, 200, 400 μg/mL of D2 fraction for 24 hours, and then subjected to cell viability assay (or MTT assay). In cell viability assay, cells are washed with 1X PBS once and treated with 0.5 mg/mL of MTT (3-(4,5-Dimethylthiazol-2-yl)-2,5-diphenyltetrazolium bromide). After incubation at 37 degrees Centigrade for 1-2 hours MTT is removed and cells are washed with 1X PBS once, followed by dimethyl sulfoxide (DMSO) to dissolve […]. Finally optical density (OD) of 570 nm is detected and medium only is used as a 100% cell viability.
# [2] = test system: HepG2 human liver cancer cell; assay: cell viability assay (MTT assay), HepG2; settings: HepG2 cells, 24 hours treatment stated for D2 fraction
# Experimental: as §1, §2
# [3] = test system: 4T1 mouse breast cancer cell; assay: cell viability assay (MTT assay), 4T1; settings: 4T1 cells, 24 hours treatment stated for D2 fraction
# Experimental: as §1, §2
compound,measurement,setting,value
CC(C)=CCC1=C(Cl)C(=O)c2c(O)ccc(O)c2C1=O [chlorosesamone],50% inhibition concentration of chlorosesamone (range),[1],0.8 to 1.3 µg/mL
same,50% inhibition concentration in HepG2 human liver cancer cell,[2],0.8 µg/mL
same,50% inhibition concentration in 4T1 mouse breast cancer cell,[3],1.3 µg/mL
